The record followed here is paper PMC12718228 (Applied Biochemistry and Biotechnology, 2025).

For assay [1], the target named is T1, SALDAP (6xHis-SALDAP), salicylaldehyde dehydrogenase (soil metagenome, UniProt Z9QUQ6R3A5).
T1 construct: full-length ORF, N-terminal 6xHis tag kept (pLATE51), E. coli BL21(DE3); homodimer about 110-115 kDa
Put plainly: X-ray crystallography, electron density in active site. In kind it is binding. The following applies: two conformations; structure first reported in the group's earlier paper.

Assay [2] has as its target T1, SALDAP (6xHis-SALDAP), salicylaldehyde dehydrogenase. The experiment in a line: differential scanning fluorimetry, SYPRO Orange. The class given is binding. The settings on record: 50 mM HEPES pH 7.4. The source says:
differential scanning fluorimetry, SYPRO Orange on SALDAP (6xHis-SALDAP), salicylaldehyde dehydrogenase
(Differential scanning fluorimetry follows unfolding on heating by fluorescence.)

Assay [3] has the same target. The experiment in a line: NADH formation at […] nm, substrate inhibition fit. The settings on record: 50 µM NAD+, 100 mM Tricine pH 8.0, 25 °C, 1.7% DMSO. In kind it is biochemical.

On to `O=Cc1ccc2ccccc2c1` [2-naphthaldehyde], for which, in assay [1], the “X-ray crystallography, electron density in active site” value is recorded as “electron density as seen in the active site of SALDAP after refinement using 2-naphthaldehyde”.
Take `O=Cc1ccc(O)c(O)c1` [3,4-dihydroxybenzaldehyde]: the “Tm ^oC” value in assay [2] (2 mM ligand with 1.5 mM NAD+) is 71.0 ± 0.0 °C.
Same read-out and setting: the value for `O=Cc1ccc(O)cc1` [4-hydroxybenzaldehyde] was 70.0 ± 0.3 °C.
Regarding `O=Cc1ccccc1` [Benzaldehyde], the Ki in assay [3] was 5.02 ± 1.84 µM.
Consider `NC(=O)c1ccc[n+]([C@@H]2O[C@H](COP(=O)(O)OP(=O)(O)OC[C@H]3O[C@@H](n4cnc5c(N)ncnc54)[C@H](O)[C@@H]3O)[C@@H](O)[C@H]2O)c1` [NAD+], for which the “Tm ^oC” value in assay [2] (1.5 mM NAD+ alone) was found to be 68.7 ± 0.3 °C.
For `COc1cc(C=O)ccc1O` [Vanillin], the “Tm ^oC” value in assay [2] (2 mM ligand with 1.5 mM NAD+) worked out at 69.6 ± 0.4 °C.
